In brackets after ≈: the same amount, converted by molar mass. Where a name gives a salt, the structure may show the parent alone. Residues, ends and D or L forms follow the SMILES beside them. *: point of attachment. Cbz = O=C(OCc1ccccc1)*; CH2Cl = ClC*

For experiment [1], the target named is T1, Sortase A (Staphylococcus aureus, UniProt Q9S446).
T1 sequence (Q9S446 whole entry): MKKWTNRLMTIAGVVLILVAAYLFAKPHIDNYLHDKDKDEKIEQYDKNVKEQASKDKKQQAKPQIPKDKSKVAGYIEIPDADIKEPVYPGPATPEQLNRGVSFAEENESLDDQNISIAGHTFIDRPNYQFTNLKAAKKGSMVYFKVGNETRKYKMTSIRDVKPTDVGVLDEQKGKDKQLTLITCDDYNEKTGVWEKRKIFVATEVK
Put plainly: Inhibition of Staphylococcus aureus SrtA using EDANS-Dabcyl as substrate by FRET assay.

The subject of experiment [2] is Staphylococcus aureus. Put plainly: Antibacterial activity against Staphylococcus aureus. In kind it is functional.
The target of experiment [3] is T1, Sortase A. Put plainly: Inhibition of recombinant Staphylococcus aureus ATCC 6538p SrtA expressed in Escherichia coli TOP10 using Dabcyl-QALPETGEE-Edans as substrate incubated for 1 hr by fluorometric analysis.
Experiment [4] addresses T1, Sortase A. Put plainly: Inhibition of Staphylococcus aureus SrtA.
Experiment [5] has as its target T1, Sortase A. Kind of experiment: Inhibition of Staphylococcus aureus SrtA with 24 residues truncated from N-terminus using Abz-LPATG-Dap as substrate.
Experiment [6] addresses T1, Sortase A. Kind of experiment: Inhibition of recombinant Staphylococcus aureus SrtA using DabcylQALPETGEE-Edans as substrate by FRET assay.
Experiment [7] concerns the target T1, Sortase A. Kind of experiment: Inhibition of C-terminal 6His-tagged recombinant Staphylococcus aureus SrtA with 1 to 59 residues truncated from N-terminus expressed in Escherichia coli BL21 (DE3) using dabcyl-QALPETGEE-edans as substrate preincubated for 1 hr followed by substrate addition and measured for 1 hr by FRET assay.
The target in experiment [8] is T2, Sortase A (Staphylococcus aureus) (UniProt Q9S446).
T2 sequence (whole entry): T1 sequence (Q9S446 whole entry)
Put plainly: Binding affinity to Staphylococcus aureus SrtA assessed as kinact/ki.

The target of experiment [9] is T2, Sortase A (Staphylococcus aureus). Kind of experiment: Binding affinity to Staphylococcus aureus SrtA (60 to 206 residues) using Dabcyl-Gln-Ala-Leu-Pro-Glu-Thr-Gly-Glu-Glu-Edans as substrate assessed as first order rate constant of inactivation incubated for 12 hrs by fluorescence based analysis.
For experiment [10] the target is unchanged. Put plainly: Binding affinity to Staphylococcus aureus SrtA (60 to 206 residues) using Dabcyl-Gln-Ala-Leu-Pro-Glu-Thr-Gly-Glu-Glu-Edans as substrate assessed as second order rate constant of inhibition, kinact/ki incubated for 12 hrs by fluorescence based analysis.
Experiment [11] has as its target T1, Sortase A. Kind of experiment: Binding affinity to Staphylococcus aureus SrtA (60 to 206 residues) using Dabcyl-Gln-Ala-Leu-Pro-Glu-Thr-Gly-Glu-Glu-Edans as substrate incubated for 12 hrs by fluorescence based analysis.
Experiment [12] has as its target T2, Sortase A (Staphylococcus aureus). Put plainly: Binding affinity to wild type recombinant Staphylococcus aureus SrtA using Dabcyl-Gln-Ala-Leu-Pro-Glu-Thr-Gly-Glu-Glu-Edans as substrate assessed as second order rate constant of inhibition, kinact/Ki by FRET assay.
Experiment [13] deals with T1, Sortase A. Kind of experiment: Binding affinity to wild type recombinant Staphylococcus aureus SrtA using Dabcyl-Gln-Ala-Leu-Pro-Glu-Thr-Gly-Glu-Glu-Edans as substrate by FRET assay.
Experiment [14] concerns the target T2, Sortase A (Staphylococcus aureus). Put plainly: Binding affinity to wild type recombinant Staphylococcus aureus SrtA using Dabcyl-Gln-Ala-Leu-Pro-Glu-Thr-Gly-Glu-Glu-Edans as substrate assessed as first order rate constant of inactivation by FRET assay.
Experiment [15] relates to Staphylococcus aureus. Put plainly: Antibacterial activity against Staphylococcus aureus SA113 by microbroth dilution assay. In kind it is functional.
Experiment [16] addresses T1, Sortase A. Kind of experiment: Inhibition of Staphylococcus aureus SrtA catalytic domain (60 to 206 residues) using Abz-LPETGDap(Dnp)-NH2 as substrate preincubated for 1 hr followed by substrate addition and measured immediately by FRET assay.
The test system of experiment [17] is Staphylococcus aureus. Put plainly: Inhibition of biofilm formation in Staphylococcus aureus ATCC 29213 incubated for 24 hrs by crystal violet staining based analysis. In kind it is functional, organism-based. The note with it: ATCC 29213, 24 h.

Regarding `O=C(/C=C/c1ccc(O)c(O)c1)O[C@@H]1C[C@](O)(C(=O)O)C[C@@H](O)[C@H]1O` [CHLOROGENIC ACID], the IC50 (in general, the concentration needed to halve the response being measured) on Sortase A [1] amounted to 95.6 µM. In the experiment with Staphylococcus aureus [2], the MIC (commonly the smallest concentration in the dilution series that meets the test's criterion for growth inhibition) amounted to 2900 µM (≈ 1030 µg/mL).
Regarding `O=c1c(O)c(-c2ccc(O)c(O)c2)oc2cc(O)cc(O)c12` [QUERCETIN], on Sortase A [3], the IC50 was found to be 52.7 µM.
`O=C(/C=C/c1ccc(O)cc1)CC(=O)/C=C/c1ccc(O)cc1` [BISDEMETHOXYCURCUMIN]: it took 103 µM to reach half-maximal inhibition against Sortase A [1] (IC50). Besides, in the experiment on Staphylococcus aureus [2], the MIC was greater than 543 µM.
Turning to `O=C(O)/C=C/c1ccc(O)c(O)c1` [CAFFEIC ACID], at Sortase A [4], the IC50 turned out to be 860 µM. Also, the minimum inhibitory concentration (MIC) in the experiment with Staphylococcus aureus [2] was greater than 5750 µM.
Turning to `Clc1ccccc1-c1nn2c(-c3ccncc3)nnc2s1`, on Sortase A [5], the IC50 was determined as 37.7 µM.
Turning to `COc1ccc2cc3[n+](cc2c1OC)CCc1cc2c(cc1-3)OCO2` [BERBERINE SULFATE], the IC50 on Sortase A [6] is 26.5 µM.
For `O=c1c(O)c(-c2cc(O)c(O)c(O)c2)oc2cc(O)cc(O)c12` [MYRICETIN], on Sortase A [3], the IC50 was determined as 44 µM.
`O=C1N[C@H](c2c[nH]c3cc(Br)ccc23)CN=C1c1c[nH]c2ccccc12` had an IC50 against Sortase A [1] of 83.2 µM.
Take `CCn1nc(C)cc1C(=O)/C(=N/Nc1ccc(Cl)c(Cl)c1)C(=O)O`: on Sortase A [7], the IC50 is greater than 200 µM.
As for `COc1ccc2c(c1OC)C(=O)O[C@@H]2[C@H]1c2cc3c(cc2CCN1C)OCO3` [HYDRASTINE], on Sortase A [6], the IC50 was greater than 209 µM.
Turning to `CCSSc1ccccc1C(=O)NCC(=O)Nc1ccc(F)cc1`, the Ratio in experiment [8] was 6.14 10^4/M/min.
Turning to `CC(C)C[C@H](NC(=O)OCc1ccccc1)C(=O)N1CCC[C@H]1C(=O)N[C@@H](C)C(=O)N[C@@H](/C=C/S(=O)(=O)c1ccccc1)[C@@H](C)O`, the Kinact in [9] is 4 10^-4/min. In experiment [10], the Kinact was determined as 0.74 M⁻¹ s⁻¹ and the Ratio stood at 44.4 M⁻¹ min⁻¹. Besides, affinity at Sortase A [11] was put at a Ki of 9 µM.
`CC(C)C[C@H](NC(=O)OCc1ccccc1)C(=O)N1CCC[C@H]1C(=O)N[C@@H](C)C(=O)N[C@H](C(=O)CCl)[C@@H](C)O` (Cbz-LPAT-CH2Cl): in experiment [12], the Ratio is 5.3 10^4/M/min and the kinact/Ki came to 883 M⁻¹ s⁻¹. For the same compound, the Ki (as a rule, the dissociation constant of the complex between target and ligand, obtained from inhibition or displacement) on Sortase A [13] is 0.2 µM. For the same compound, the Kinact in experiment [14] is 1.1 10^-2/min.
In turn, `COc1c(O)c2c(c3c1O[C@@]1(O)C(C)(C)[C@H](C)O[C@@]31O)C(=O)C(C)=CC2=O` came in with an IC50 at Sortase A [4] of 23.6 µM.
`CCSSc1ccccc1C(=O)NCC(=O)NC12CC3CC(CC(C3)C1)C2` yielded an MIC in the experiment with Staphylococcus aureus [15] of 7.74 µM (≈ 3.13 µg/mL). Moreover, the Ratio in experiment [8] was 5.79 10^4/M/min.
`O=c1cc(CO)oc(C(Nc2ccccn2)c2ccsc2)c1O` (stereo not drawn): in experiment [8], the Ratio is 0.7 10^3/M/min. Further, in the experiment with Staphylococcus aureus [2], the MIC was greater than 1550 µM.
Consider `CC(=O)/C(=N/Nc1ccc([N+](=O)[O-])cc1)C(=O)O`, for which the IC50 at Sortase A [7] came to 57 µM. This compound also had a minimal inhibitory concentration (MIC) with Staphylococcus aureus [2] greater than 270 µM.
For the compound `CCOc1c(SSc2cnn(-c3cccc(OC)c3)c(=O)c2OCC)cnn(-c2cccc(OC)c2)c1=O`, the IC50 on Sortase A [16] is 0.62 µM.
As for `O=c1c(OCCO)c(SSc2cnn(-c3cccc(F)c3)c(=O)c2OCCO)cnn1-c1cccc(F)c1`, at Sortase A [16], the IC50 worked out at 0.41 µM.
Consider `COc1ccc(C(Nc2ccccn2)c2oc(CO)cc(=O)c2O)cc1` (stereo not drawn), for which the Ratio in [8] was 1.8 10^3/M/min. In addition, in the experiment on Staphylococcus aureus [2], the MIC was greater than 1440 µM.
Turning to `O=c1cc(CO)oc(C(Nc2ccccn2)c2ccc(F)cc2)c1O` (stereo not drawn), the Ratio in experiment [8] is 1.4 10^3/M/min. This compound also gave an MIC in the experiment on Staphylococcus aureus [2] greater than 1580 µM.
As for `CCSSc1ccccc1C(=O)N[C@H](CC(=O)O)C(=O)Nc1cccc(Oc2ccccc2)c1`, the Ratio in [8] was 8.21 10^4/M/min.
Consider `CCOc1c(SSc2cnn(-c3cccc(F)c3)c(=O)c2OCC)cnn(-c2cccc(F)c2)c1=O`, for which it took 0.16 µM to reach half-maximal inhibition against Sortase A [16] (IC50).
`C[C@@H]1O[C@@H](OC2=C(c3ccc(O)c(O)c3)Oc3cc(O)cc(O)c3[C@@H]2O)[C@H](O)[C@H](O)[C@H]1O` returned an IC50 at Sortase A [1] of 71.8 µM.
As for `CCOc1c(S)cnn(-c2ccccc2)c1=O`, the IC50 at Sortase A [16] was 35 µM.
On Sortase A [4], `COc1ccc(-c2cc(=O)c3c(O)cc(O)cc3o2)cc1` [ACACETIN] registered an IC50 of 128 µM. In addition, the MIC with Staphylococcus aureus [2] is greater than 3600 µM.
As for `Cc1cc(C(=O)/C(=N/Nc2ccc(Cl)c(Cl)c2)C(=O)O)no1`, the figures for the IC50 at Sortase A [7] and in the experiment with Staphylococcus aureus [17] were greater than 200 µM and 0.8 µM, respectively.

Values taken from ChEMBL document CHEMBL5226340, “Chemical Biology of Sortase A Inhibition: A Gateway to Anti-infective Therapeutic Agents” (J Med Chem, 2021).
